We go through 3 compounds from ChEMBL document CHEMBL4765389, “Antimicrobial and anti-inflammatory activities of short dodecapeptides derived from duck cathelicidin: Plausible mechanism of bactericidal action and endotoxin neutralization” (Eur J Med Chem, 2020).

In brackets after ≈: the same amount, converted by molar mass. Activity calls are given as the source filed them. The rule behind the calls is not given here. Bridge positions count the residues as written; N and C are the ends. Square brackets hold non-standard residues; d marks the D form. Peptide text beside a SMILES is read from it. * marks the point of attachment. X1 = CC[C@H](C)CCCCC(=O)*; Dab = NCC[C@H](N)C(=O)O

Data set [1] concerns Escherichia coli. The experiment in a line: Bacteriostatic activity against Escherichia coli KCTC 1682 assessed as reduction in colony forming unit at 0.5 times MIC measured for 24 hrs by time kill assay. Type of data set: functional.
In data set [2] the test system is Escherichia coli. As to the kind of experiment: Bacteriostatic activity against Escherichia coli KCTC 1682 assessed as reduction in colony forming unit at 0.5 times MIC measured for 12 hrs by time kill assay. Type of data set: functional, organism-based.
Data set [3] concerns RAW264.7. The experiment in a line: Antiinflammatory activity in mouse RAW264.7 cells assessed as suppression of LPS binding by measuring LPS-FITC aggregation at 10 uM pretreated with LPS for 1 hr followed by compound addition and measured after 30 mins by flowcytometry analysis (reference value: 67.93 %). Type of data set: functional. The settings on record: 0.5 h.
Data set [4] has as its system RAW264.7. The experiment in a line: Antiinflammatory activity in mouse RAW264.7 cells assessed as neutralization of LPS binding by measuring LPS-FITC aggregation at 10 uM pretreated with LPS for 1 hr followed by compound addition and measured after 1 hr by flowcytometry analysis (reference value: 48.12 %). Type of data set: functional.
A further data set deals with Lipopolysaccharide (LPS). As to the kind of experiment: Inhibition of Escherichia coli O111:B4 LPS aggregation assessed as increase in FITC-LPS dissociation at 100 uM by spectrofluorometry.
The subject of data set [5] is Cell membrane. As to the kind of experiment: Induction of cell membrane permeability in Staphylococcus aureus KCTC 1621 assessed as cytoplasmic membrane depolarization at 2 times MIC by SYTOX dye based fluorescence assay. Type of data set: subcellular.
A short description of data set [6]: Antibacterial activity against multidrug-resistant Pseudomonas aeruginosa CCARM 2109 assessed as reduction in bacterial growth incubated for 24 hrs by CLSI based broth dilution method. Type of data set: functional. The settings on record: read-out: MIC100. (In broth dilution the organism is exposed to a series of concentrations in liquid medium.)
A short description of data set [7]: Cytotoxicity against mouse RAW264.7 cells assessed as reduction in cell viability at 20 uM incubated for 24 hrs by MTT assay. The settings on record: read-out: INH. Type of data set: cell-based.
Data set [8] relates to Candida albicans. As to the kind of experiment: Antifungal activity against Candida albicans KCTC 7121 assessed as reduction in fungal growth incubated for 24 hrs by CLSI based broth dilution method. Type of data set: functional. Particulars: read-out: MIC100.
A short description of data set [9]: Therapeutic index, ratio of HC10 for sheep RBC to geometric mean MIC for gram negative bacteria. Type of data set: toxicity. The settings on record: sheep red blood cells, read-out: TI.
A short description of data set [10]: Antibacterial activity against multidrug-resistant Pseudomonas aeruginosa CCARM 2095 assessed as reduction in bacterial growth incubated for 24 hrs by CLSI based broth dilution method. The settings on record: read-out: MIC100. Type of data set: functional.
For data set [11], the system named is Bacteria. As to the kind of experiment: Antibacterial activity against Gram negative bacteria assessed as reduction in bacterial growth incubated for 24 hrs by CLSI based broth dilution method. Type of data set: functional. The settings on record: read-out: MIC100.
In another data set the test system is Saccharomyces cerevisiae. As to the kind of experiment: Antifungal activity against yeast assessed as reduction in fungal growth incubated for 24 hrs by CLSI based broth dilution method. Type of data set: functional. The settings on record: read-out: MIC100.
Data set [12] concerns Bacteria. The experiment in a line: Antibacterial activity against Gram positive bacteria assessed as reduction in bacterial growth incubated for 24 hrs by CLSI based broth dilution method. Type of data set: functional. The settings on record: read-out: MIC100.
For data set [13], the system named is NIH3T3. As to the kind of experiment: Cytotoxicity against mouse NIH/3T3 cells assessed as reduction in cell viability at 1.25 to 80 uM incubated for 24 hrs by MTT assay. Type of data set: cell-based. Particulars: nih3t3, 24 h, dose 1.25-80 µM. On the technique in general: Tetrazolium assays rely on reduction of a dye to a coloured formazan, in cell work by metabolically active cells.

Data set [14] concerns Cell membrane. As to the kind of experiment: Induction of cell membrane permeability in Staphylococcus aureus KCTC 1621 assessed as cytoplasmic membrane depolarization at 2 times MIC by DiSC3-5 dye based spectrofluorometry. Type of data set: subcellular.
Data set [15] has as its system NIH3T3. The experiment in a line: Cytotoxicity against mouse NIH/3T3 cells assessed as reduction in cell viability at 20 uM incubated for 24 hrs by MTT assay. Type of data set: cell-based. Particulars: nih3t3, 24 h, 20 µM.
The test system of data set [16] is RAW264.7. As to the kind of experiment: Cytotoxicity against mouse RAW264.7 cells assessed as reduction in cell viability at 1.25 to 80 uM incubated for 24 hrs by MTT assay. Type of data set: cell-based. The settings on record: raw264.7, 24 h, dose 1.25-80 µM.
The subject of another data set is Enterococcus faecium. The experiment in a line: Antibacterial activity against vancomycin-resistant Enterococcus faecium ATCC 51559 assessed as reduction in bacterial growth incubated for 24 hrs by CLSI based broth dilution method. Particulars: read-out: MIC100. Type of data set: functional.
Data set [17] concerns Cell membrane. As to the kind of experiment: Induction of cell membrane permeability in Escherichia coli KCTC 1682 assessed as cytoplasmic membrane […] fluorescent signals at 2 times MIC measured after 1 hr by propidium iodide dye based flow cytometry analysis (reference value: 9.8 %). Type of data set: subcellular. On the technique in general: Flow cytometry measures light scatter and fluorescence of single cells or particles in a stream.

In the next data set the test system is Erythrocyte. As to the kind of experiment: Hemolytic activity in sheep RBC assessed as reduction in hemoglobin incubated for 1 hr. Type of data set: ADME, cell-based, Ovis aries.
Data set [18] can be described thus: Therapeutic index, ratio of HC10 for sheep RBC to geometric mean MIC for yeast. Type of data set: toxicity. Particulars: sheep red blood cells, read-out: TI.
The subject of data set [19] is Candida albicans. As to the kind of experiment: Antifungal activity against Candida albicans KCTC 7965 assessed as reduction in fungal growth incubated for 24 hrs by CLSI based broth dilution method. Type of data set: functional. The settings on record: read-out: MIC100.
The test system of data set [20] is Cell membrane. The experiment in a line: Induction of cell membrane permeability in Escherichia coli KCTC 1682 assessed as […] at 2 times MIC by ONPG dye based spectrophotometry. Type of data set: subcellular.
Data set [21] in a line: Therapeutic index, ratio of HC10 for sheep RBC to geometric mean MIC for gram positive bacteria. The settings on record: sheep red blood cells, read-out: TI. Type of data set: toxicity.

`O=C(N[C@H](CO)[C@H](O)c1ccc([N+](=O)[O-])cc1)C(Cl)Cl`: in the data set with Escherichia coli [1], the outcome was inactive. Besides, the outcome with Escherichia coli [2] was Active.

With `CC[C@H](C)CCCCC(=O)N[C@@H](CCN)C(=O)N[C@H](C(=O)N[C@@H](CCN)C(=O)N[C@H]1CCNC(=O)[C@H]([C@@H](C)O)NC(=O)[C@H](CCN)NC(=O)[C@H](CCN)NC(=O)[C@H](CC(C)C)NC(=O)[C@@H](Cc2ccccc2)NC(=O)[C@H](CCN)NC1=O)[C@@H](C)O` (X1-[Dab]T[Dab][Dab][Dab][dF]L[Dab][Dab]T; lactam 4-C), the Activity is listed as 23.97% in the data set on RAW264.7 [3] and 43.62% with RAW264.7 [4]. Also, the inhibition entry in the data set on Lipopolysaccharide (LPS) was “inactive”.

For the compound `CC[C@H](C)[C@H](NC(=O)CN)C(=O)NCC(=O)N[C@@H](C)C(=O)N[C@H](C(=O)N[C@@H](CC(C)C)C(=O)N[C@@H](CCCCN)C(=O)N[C@H](C(=O)N[C@@H](CC(C)C)C(=O)N[C@H](C(=O)N[C@H](C(=O)NCC(=O)N[C@@H](CC(C)C)C(=O)N1CCC[C@H]1C(=O)N[C@@H](C)C(=O)N[C@@H](CC(C)C)C(=O)N[C@H](C(=O)N[C@@H](CO)C(=O)N[C@@H](Cc1c[nH]c2ccccc12)C(=O)N[C@H](C(=O)N[C@@H](CCCCN)C(=O)N[C@@H](CCCNC(=N)N)C(=O)N[C@@H](CCCCN)C(=O)N[C@@H](CCCNC(=N)N)C(=O)N[C@@H](CCC(N)=O)C(=O)N[C@@H](CCC(N)=O)C(N)=O)[C@@H](C)CC)[C@@H](C)CC)[C@@H](C)O)[C@@H](C)O)C(C)C)C(C)C` [MELITTIN], the result in the data set on Cell membrane [5], with Cell membrane [14] and in the data set with Cell membrane [20] was Active. In addition, the MIC in [6] was 32 µM (≈ 91.1 µg/mL); in the data set on Candida albicans [8], 16 µM (≈ 45.5 µg/mL); in [10], 32 µM (≈ 91.1 µg/mL); with Bacteria [11] it was 17.2 µM (≈ 49 µg/mL); in the data set on Saccharomyces cerevisiae it was 16 µM (≈ 45.5 µg/mL); in the data set on Bacteria [12] it was 16 µM (≈ 45.5 µg/mL). The MIC in the data set with Enterococcus faecium and in the data set on Candida albicans [19] was 16 µM (≈ 45.5 µg/mL) throughout. Moreover, the cytotoxicity at 24 h, 20 µM in data set [7] was less than 10%. The selectivity ratio in data set [9], in [18] and in data set [21] was 0.1 throughout. Also, the Activity entry was “Toxic” in the data set on NIH3T3 [13], “Toxic” in the data set with NIH3T3 [15], “Toxic” in the data set on RAW264.7 [16] and 71.9% in the data set with Cell membrane [17]. Further, in the data set on Erythrocyte, the HC10 came out at 1 µM.
